# Data from the NIST ThermoML archive (doi:10.1016/j.fluid.2006.10.004).
# Numbers after ± are expanded uncertainties.
# Assays:
# [1] = 293.15 K; 101.33 kPa; Liquid
# [2] = refractive index (Na D-line) (dimensionless); settings: 293.15 K; 101.33 kPa; Liquid; Standard Abbe refractometry
mass density [1] [kg/m3],refractive index [2],Structure (SMILES)
822.7 ± 1.2,1.4194 ± 0.0008,CCC(=O)CCC(C)C [6-methyl-3-heptanone]
804.8 ± 1.3,1.4155 ± 0.0008,"CC(C)CC(=O)CC(C)C [2,6-dimethyl-4-heptanone]"
992.7 ± 0.6,1.3811 ± 0.0008,CCC(=O)O [propanoic acid]
887.5 ± 1,1.4074 ± 0.0008,CC(=O)CCC(C)C [5-methyl-2-hexanone]
